From ChEMBL document CHEMBL4325884, “Investigation of the molecular characteristics of bisindole inhibitors as HIV-1 glycoprotein-41 fusion inhibitors” (Eur J Med Chem, 2019)

Tests used:
[1] = biological target: Envelope glycoprotein gp160 (Human immunodeficiency virus 1, UniProt Q6QLK5); experiment: Binding affinity to HIV1 N-terminal 2,2-bipyridine-5-carboxylate-capped Envelope glycoprotein gp41 Fe2(env2.0)3 by C18FL probe based fluorescence quenching assay
[2] = system: Human immunodeficiency virus 1; experiment: Antiviral activity against HIV-1 Bal infected in human MAGI-CCR5 cells assessed as reduction in viral infection after 48 hrs by fluorescence based beta-galactosidase reporter gene assay; assay type: functional, organism-based; details: Human immunodeficiency virus 1, Bal, MAGI-CCR5, 48 h
[3] = system: Human immunodeficiency virus 1; experiment: Antiviral activity against HIV-1 3B infected in human MAGI-CXCR4 cells assessed as reduction in viral infection after 48 hrs by fluorescence based beta-galactosidase reporter gene assay; assay type: functional, organism-based; details: Human immunodeficiency virus 1, 3B
[4] = Cytotoxicity against human MAGI cells by MTS or resazurin dye based assay; assay type: cell-based
[5] = Cytotoxicity against human PBMC by MTS or resazurin dye based assay; assay type: cell-based

Chain of Envelope glycoprotein gp160 (Q6QLK5 whole entry): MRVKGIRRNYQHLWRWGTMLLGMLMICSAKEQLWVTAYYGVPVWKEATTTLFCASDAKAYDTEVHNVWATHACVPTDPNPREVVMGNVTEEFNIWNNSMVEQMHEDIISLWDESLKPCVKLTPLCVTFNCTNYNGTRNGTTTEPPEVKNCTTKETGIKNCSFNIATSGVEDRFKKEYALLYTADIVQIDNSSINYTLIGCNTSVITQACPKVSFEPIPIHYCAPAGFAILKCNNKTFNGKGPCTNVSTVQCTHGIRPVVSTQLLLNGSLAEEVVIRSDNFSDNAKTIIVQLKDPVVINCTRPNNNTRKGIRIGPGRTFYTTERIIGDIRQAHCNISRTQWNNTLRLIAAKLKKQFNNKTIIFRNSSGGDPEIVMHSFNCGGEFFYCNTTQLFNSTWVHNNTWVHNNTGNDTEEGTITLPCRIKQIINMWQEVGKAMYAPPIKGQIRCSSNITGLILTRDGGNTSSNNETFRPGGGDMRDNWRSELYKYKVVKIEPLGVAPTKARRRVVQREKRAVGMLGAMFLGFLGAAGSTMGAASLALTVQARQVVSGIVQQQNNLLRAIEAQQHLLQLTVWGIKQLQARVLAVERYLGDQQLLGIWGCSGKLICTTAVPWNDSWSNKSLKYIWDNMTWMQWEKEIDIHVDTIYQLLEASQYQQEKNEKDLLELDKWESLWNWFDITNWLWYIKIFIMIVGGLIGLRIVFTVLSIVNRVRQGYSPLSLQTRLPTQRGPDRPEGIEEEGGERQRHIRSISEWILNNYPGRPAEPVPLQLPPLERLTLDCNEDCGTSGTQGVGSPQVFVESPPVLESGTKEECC

Row | SMILES | Ki [1] [µM] | IC50 [2] [µM] | IC50 [3] [µM] | CC50 [4] [µM] | CC50 [5] [µM]
1 | Cn1ncc2ccc(-c3ccc4cnn(Cc5ccc(F)c(C(=O)O)c5)c4c3)cc21 | 19 | > 20 | > 20 | 200 | 200
2 | CC(C)(C)OC(=O)n1ccc2ccc(-c3ccc4ccn(Cc5cccc(C(=O)O)c5)c4c3)cc21 | 1.9 | 0.9 | 1 | – | > 20
3 | CC(C)(C)OC(=O)N1CCC(Cn2ccc3ccc(-c4ccc5ccn(Cc6cccc(C(=O)O)c6)c5c4)cc32)CC1 | 1.2 | 0.6 | 0.6 | – | > 20
4 | CC(C)(C)OC(=O)Nc1cccc(Cn2ccc3ccc(-c4ccc5ccn(Cc6cccc(C(=O)O)c6)c5c4)cc32)c1 | 1.5 | 0.4 | 0.5 | – | > 20
5 | COc1cccc(CN(C)c2cccc(-c3ccc4ccn(Cc5cccc(C(=O)O)c5)c4c3)c2)c1 | 0.8 | 1.6 | 1.2 | – | > 20
6 | Cc1ccc(S(=O)(=O)n2ccc3ccc(-c4ccc5ccn(Cc6cccc(C(=O)O)c6)c5c4)cc32)cc1 | 1.2 | 0.8 | 0.9 | – | > 50
7 | COC(=O)c1cccc(Cn2ccc3cc(F)c(-c4ccc5ccn(Cc6cccc(C(=O)O)c6)c5c4)cc32)c1 | 0.7 | 0.5 | 0.4 | – | > 20
8 | CC(C)(C)OC(=O)c1cccc(Cn2ccc3ccc(-c4ccc5ccn(Cc6cccc(C(=O)O)c6)c5c4)cc32)c1 | 0.3 | 0.2 | 0.2 | – | > 10
9 | COC(=O)c1cc(Cn2ccc3ccc(-c4ccc5ccn(Cc6cccc(C(=O)O)c6)c5c4)cc32)cc(C(=O)OC)c1 | 1 | 0.6 | 0.6 | – | > 20
10 | CC(C)(C)OC(=O)N1CCc2ccc(-c3ccc4ccn(Cc5cccc(C(=O)O)c5)c4c3)cc21 | 0.9 | 2.3 | 2.8 | – | > 25
11 | COc1cccc(CN(C(=O)OC(C)(C)C)c2cccc(-c3ccc4ccn(Cc5cccc(C(=O)O)c5)c4c3)c2)c1 | 0.45 | 5.5 | 4.2 | – | > 10
12 | Cn1ccc2cc(F)c(-c3ccc4ccn(Cc5cc(F)cc(C(=O)O)c5)c4c3)cc21 | 2 | 9.7 | 7.8 | – | > 20
13 | COC(=O)c1cccc(Cn2ncc3ccc(-c4ccc5ccn(Cc6cccc(C(=O)O)c6)c5c4)cc32)c1 | 1 | 1.4 | 1.4 | – | > 50
14 | O=C(O)c1cccc(Cn2ccc3ccc(-c4ccc5ccn(Cc6cccc(OC(F)(F)F)c6)c5c4)cc32)c1 | 2.3 | 1.4 | 1.5 | – | > 20
15 | O=C(O)c1cccc(Cn2ccc3ccc(-c4ccc5ccn(Cc6cccc([N+](=O)[O-])c6)c5c4)cc32)c1 | 2.7 | 2.8 | 3.4 | – | > 20
16 | COc1cccc(CNc2cccc(-c3ccc4ccn(Cc5cccc(C(=O)O)c5)c4c3)c2)c1 | 1.5 | > 20 | > 20 | – | > 10
17 | COC(=O)c1ccc(Cn2ccc3ccc(-c4ccc5ccn(Cc6cccc(C(=O)O)c6)c5c4)cc32)c(OC)c1 | 0.4 | 4.2 | 3.1 | 25 | 25

Row | SMILES | Ki [1] [µM] | IC50 [2] [µM] | IC50 [3] [µM] | CC50 [4] [µM] | CC50 [5] [µM]
18 | Cc1cn(C(=O)OC(C)(C)C)c2cc(-c3ccc4ccn(Cc5cccc(C(=O)O)c5)c4c3)ccc12 | 4.7 | 1.2 | 1.7 | – | > 20
19 | COc1cccc(Cn2ccc3ccc(-c4ccc5cn(Cc6cccc(C(=O)O)c6)nc5c4)cc32)c1 | 1 | 5.8 | 5.5 | – | > 20
20 | Cn1ccc2ccc(-c3ccc4c(c3)N(Cc3cccc(C(=O)O)c3)CC4)cc21 | 10 | > 25 | > 25 | – | > 50
21 | CN(C(=O)OC(C)(C)C)c1cccc(-c2ccc3ccn(Cc4cccc(C(=O)O)c4)c3c2)c1 | 1.6 | 15.6 | 11.3 | – | > 20
22 | Cn1cc2ccc(-c3ccc4ccn(Cc5cc(F)cc(C(=O)O)c5)c4c3)cc2n1 | 6.4 | 14 | > 20 | – | > 20
23 | Cn1ncc2ccc(-c3ccc4ccn(Cc5cc(F)cc(C(=O)O)c5)c4c3)cc21 | 2.5 | 10.1 | 11.3 | – | > 20
24 | COc1cccc(CN2CCc3ccc(-c4ccc5ccn(Cc6cccc(C(=O)O)c6)c5c4)cc32)c1 | 3.6 | 1.9 | 2.4 | – | > 25
25 | Nc1ccc(Cn2ccc3ccc(-c4ccc5ccn(Cc6cccc(C(=O)O)c6)c5c4)cc32)cc1 | 3.1 | 1.1 | 1.3 | – | > 20
26 | Cn1ccc2ccc(-c3ccc4cnn(Cc5cc(F)cc(C(=O)O)c5)c4c3)cc21 | 2.1 | > 20 | > 20 | – | > 20
27 | Cn1ccc2ccc(-c3ccc4ccn(Cc5cc(F)cc(C(=O)O)c5)c4c3)cc21 | 3 | 8.2 | 9.1 | – | > 20
28 | COc1cccc(Cn2ccc3ccc(-c4ccc5c(C)cn(Cc6cccc(C(=O)O)c6)c5c4)cc32)c1 | 1.2 | 10.5 | 12.9 | 70 | 70
29 | COc1cc(Cn2ccc3ccc(-c4ccc5ccn(Cc6cccc(C(=O)O)c6)c5c4)cc32)cc(C(=O)O)c1 | 0.8 | > 20 | > 20 | – | > 20
30 | COc1cccc(Cn2ccc3cc(F)c(-c4ccc5ccn(Cc6cccc(C(=O)O)c6)c5c4)cc32)c1 | 5 | 9.4 | 7 | – | > 20
31 | COC(=O)c1cccc(Cn2ccc3ccc(-c4ccc5cnn(Cc6cccc(C(=O)O)c6)c5c4)cc32)c1 | 3.2 | 3.1 | 2.5 | – | > 20
32 | COC(=O)c1cc(F)cc(Cn2ccc3ccc(-c4ccc5ccn(Cc6cccc(C(=O)O)c6)c5c4)cc32)c1 | 1 | 0.4 | 0.5 | – | > 20
33 | CC(=O)Nc1cccc(Cn2ccc3ccc(-c4ccc5ccn(Cc6cccc(C(=O)O)c6)c5c4)cc32)c1 | 0.9 | 4.7 | 4.5 | – | > 20
